Results from patent US20090098096A1, “AGENT FOR CORRECTING STRESS-INDUCING NEURO-MEDIATOR, NEURO-ENDOCRINE AND METABOLIC DISTURBANCES AND METHOD FOR PREVENTING AND TREATING CONCOMITANT PATHOLOGICAL CONDITIONS” (priority 2005, published 2009).
Where no end group is shown, it is not given here.

Legend:
[1] = test system: plasma membranes of human blood cells (erythrocytes and thrombocytes) and synaptosomal membranes (mice brain); conditions: on the surface and internal non-polar region; cited from earlier work
[2] = test system: mitochondrial respiratory chain; experiment: mitochondrial respiratory chain and oxidative phosphorylation on rat brain preparations; assay type: biochemical
Text: DSIP and its related peptides play a unique role in the maintenance of the structural-metabolic homeostasis not only on the level of different organs and tissues but also on the sub-cellular level of the organism. […] Such a decrease of rigidity of biological membranes enables the normalization of membrane functions, that have been disturbed by manifestations of the metabolic syndrome, such as hypertonic disease, hyperinsulinemia, misbalance of the endocrinal system, aging, etc.

[3] = test system: antioxidant systems of the liver, the brain and the blood; conditions: under normal and under stress conditions; cited from earlier work
[4] = test system: GABAA-receptor complex; experiment: pharmacological profiling on convulsive and comatose models; design: species or system mice; conditions: mouse, in vivo
Text: Particularly, the evaluation of the GABA-effecting component in the mechanism of action of the peptidic composition “Deltaran” based on FDSIP has been performed using the “pharmacological profiling” method in animals (mice). […] Also evidence has been found for a modulation of the barbiturate binding site of the GABA-benzodiazepine-ionophore-receptor complex by Deltaran and DSIP and data have been obtained concerning regulatory effect on chloride ionophore. The regulatory influences are probably realized via the peptide fragment of the GABA-benzodiazepine-ionophore-receptor complex (15).

[5] = test system: lipids of various biological membranes (synaptosome, mitochondrial, erythrocyte and other); experiment: peroxidation of lipids of biological membranes; assay type: biochemical; conditions: by modulation of the activity of antioxidant enzymes
Text: The direct effect of the peptide on different cell membrane types was shown which may provide an additional normalizing cell functions effect. Particularly FDSIP may provide a stabilizing effect to the mitochondrial cell apparatus that also is capable of reducing cell damage by normalizing the cell respiration processes, which has been shown by us in experiments.

## WAGGDASGE [DSIP, endogenous nonapeptide, delta-sleep inducing peptide]
[1]
  mobility of structural membrane domains: increased mobility
[2]
  efficacy of the oxidative phosphorylation: significant increase
[3]
  capacity of the antioxidant systems of the liver, the brain and the blood: credibly increases
[4]
  barbiturate binding site of the GABA-benzodiazepine-ionophore-receptor complex: modulation
[5]
  action on the peroxidation of lipids of various biological membranes: inhibitory and preventive action
